Source: patent US20110178396A1, “Nicotinamide Derivatives” (CRC FOR BIOMEDICAL IMAGING DEVELOPMENT LTD., priority 2008, published 2011)

Test system: B16F0 melanoma tumour
Test: Biodistribution in B16 melanoma bearing mice
Format: in vivo, C57BL/6J mice
Settings: C57BL/6J mice; for Organ distribution Intestine / Organ distribution Liver / Organ distribution Spleen / Organ distribution Stomach / Organ distribution Thyroid / Organ distribution Tumour: B16F0 tumour, mean ± S.D.; for Organ distribution Intestine / Organ distribution Liver / Organ distribution Spleen / Organ distribution Stomach / Organ distribution Thyroid / Organ distribution Tumour / Uptake Lung / uptake BLOOD / uptake BRAIN / uptake HEART / uptake KIDNEY / uptake LIVER / uptake TUMOUR: n = 5; for tumour standardized uptake value (SUVt) / Uptake Lung / uptake BLOOD / uptake BRAIN / uptake HEART / uptake KIDNEY / uptake LIVER / uptake TUMOUR: B16 tumour; for Uptake Lung / uptake BLOOD / uptake BRAIN / uptake HEART / uptake KIDNEY / uptake LIVER / uptake TUMOUR: mean ± SD
Experimental: Animal experiments were performed in compliance with the NHMRC Australian Code of Practice for the care and use of animals for scientific purposes. Female C57BL/6J black and BALB/c nude albino mice of 5 weeks age were obtained from the Animal Resources Centre, Western Australia. B16F0 murine melanoma cells were originally obtained from European Collection of Cell Cultures (UK) and A375 human amelanotic melanoma cells were originally obtained from American Type Culture Collection (USA). Before transplantation, B16F0 and A375 melanoma cells were maintained as a monolayer in RPMI culture medium supplemented with 10% foetal calf serum and antibiotics and passaged with trypsinisation. Early passages were frozen and stored in liquid nitrogen. Cells were passaged to P=10 and then discarded. Frozen aliquots were grown in a monolayer culture to between 80-95% confluence and for transplantation were trypsinised and washed with Ca^2+ and Mg^2+ free phosphate buffered saline (PBS). For inoculation, B16F0 melanoma cells were resuspended in Ca^2+ and Mg^2+ free PBS at 3 or 5×10^6 viable cells per ml and 0.1 ml was subcutaneously injected at the left flank of 6-7 weeks old C57BL/6J mice. Eleven days later, tumours could be palpated in >98% of inoculated animals. A375 human melanoma cells were resuspended at 1×10^7 viablecells per ml and 0.1 ml was injected subcutaneously at the left flank of 6 weeks old BALB/c nude mice and 25-26 days later tumours could be palpated with ˜60% of inoculated animals developing tumours.
Eleven days (B16F0 melanoma) and 25 days (A375 human melanoma) after tumour transplantation, the [^18F]nicotinamides (0.5-1.5 MBq, 100 μl) and [^123I]nicotinamide (0.37-0.74 MBq, 100 μl) derivatives were injected intravenously via the tail vein into mice (15-18 g). Time points of 1, 3, 6, 24, 48, 72 h after injection were chosen for determining the distribution of each compound in various organs and tissues for the iodine-123 labelled compounds and between 15 min and 6 hours (e.g. 15 min, 30 min, 1 h, 2 h, 4 h or 6 h) were chosen for the ^18F-labelled compounds. At defined times post injection, groups of mice (n=5) were weighed, sacrificed by CO2 administration followed by cervical dislocation and dissected. Selected organs were weighed and their radioactivity measured with a γ-counter. The remaining activity in the carcass was also determined in order to obtain the total activity in the mouse at defined time points. The fraction of injected activity (% ID) in the organ was calculated by comparison with suitable dilutions of the injected dose. Then, the radioactivity concentration in the organ (% ID/g) was found by dividing the % ID for each organ by the weight of the organ.

CCCN(CCC)CCCCNC(=O)c1cncc(I)c1 [[^123I]17, N-(4-(Dipropylamino)butyl)-5-iodonicotinamide]
Organ distribution Intestine (1 h): 15 ± 1 % ID/organ | Organ distribution Liver (1 h): 2.0 ± 0.1 % ID/organ | Organ distribution Spleen (1 h): 0.54 ± 0.09 % ID/organ | Organ distribution Stomach (1 h): 6 ± 1 % ID/organ | Organ distribution Thyroid (1 h): 1.3 ± 0.4 % ID/organ | Organ distribution Tumour (1 h): 0.64 ± 0.20 % ID/organ | Organ distribution Intestine (6 h): 9 ± 1 % ID/organ | Organ distribution Liver (6 h): 0.95 ± 0.15 % ID/organ | Organ distribution Spleen (6 h): 0.13 ± 0.02 % ID/organ | Organ distribution Stomach (6 h): 6 ± 2 % ID/organ | Organ distribution Thyroid (6 h): 4.0 ± 0.9 % ID/organ | Organ distribution Tumour (6 h): 1.0 ± 0.2 % ID/organ | Organ distribution Intestine (24 h): 0.40 ± 0.07 % ID/organ | Organ distribution Liver (24 h): 0.14 ± 0.03 % ID/organ | Organ distribution Spleen (24 h): 0.02 ± 0.03 % ID/organ | Organ distribution Stomach (24 h): 0.17 ± 0.04 % ID/organ | Organ distribution Thyroid (24 h): 6.0 ± 1.6 % ID/organ | Organ distribution Tumour (24 h): 0.62 ± 0.22 % ID/organ | tumour standardized uptake value (SUVt) (1 h): 1.8 ± 0.1 | Uptake Lung (1 h): 7.5 ± 0.2 % ID/g | uptake BLOOD (1 h): 3.1 ± 0.1 % ID/g | uptake BRAIN (1 h): 0.42 ± 0.02 % ID/g | uptake HEART (1 h): 1.9 ± 0.1 % ID/g | uptake KIDNEY (1 h): 3.5 ± 0.2 % ID/g | uptake LIVER (1 h): 2.1 ± 0.2 % ID/g | uptake TUMOUR (1 h): 5.6 ± 0.3 % ID/g | tumour standardized uptake value (SUVt) (6 h): 2.2 ± 0.4 | Uptake Lung (6 h): 2.2 ± 0.2 % ID/g | uptake BLOOD (6 h): 2.4 ± 0.3 % ID/g | uptake BRAIN (6 h): 0.16 ± 0.03 % ID/g | uptake HEART (6 h): 0.8 ± 0.1 % ID/g | uptake KIDNEY (6 h): 1.7 ± 0.3 % ID/g | uptake LIVER (6 h): 1.1 ± 0.1 % ID/g | uptake TUMOUR (6 h): 5.0 ± 0.7 % ID/g | tumour standardized uptake value (SUVt) (24 h): 5.1 ± 1.3 | Uptake Lung (24 h): 0.15 ± 0.3 % ID/g | uptake BLOOD (24 h): 0.13 ± 0.03 % ID/g | uptake BRAIN (24 h): 0.02 % ID/g | uptake HEART (24 h): 0.09 ± 0.02 % ID/g | uptake KIDNEY (24 h): 0.12 ± 0.03 % ID/g | uptake LIVER (24 h): 0.15 ± 0.03 % ID/g | uptake TUMOUR (24 h): 2.3 ± 0.4 % ID/g
